Data taken from patent EP0313984A1, “Substituted azolyl methyl carbinols and pharmaceutical compositions containing them” (BAYER AG, priority 1987, dated 1989).
Converted amounts (≈) assume the structure as drawn.

What was measured:
[1] = tested on: Dermatophyten, Schimmelpilze, Hefen; assay: Antimycotic in-vitro activity, serial dilution test (overall comparison); format: cell-based; conditions: compared in words with known compounds (A) and (B)
Experimental: (§1) Die in-vitro-Prüfungen wurden im Reihenverdünnungstest mit Keiminokula von durchschnittlich 5 x 10³ bis 10⁴ Keimen/ml Substrat durchgeführt. Als Nährmedium dienten • a) für Dermatophyten und Schimmelpilze: Sabouraud's milieu d'epreuve • b) für Hefen: Fleischextrakt-Traubenzucker-Bouillon.
(§2) Die Bebrütungstemperatur betrug 28 °C bis 37 °C, die Bebrütungsdauer lag bei 24 bis 96 Stunden bei Hefen und 96 Stunden bei Dermatophyten und Schimmelpilzen.

Trichophyton mentagr. = assay: Antimycotic in-vitro activity, serial dilution test (MIC); format: cell-based, Trichophyton mentagrophytes; conditions: inoculum 5 x 10³ to 10⁴ Keime/ml, Sabouraud's milieu d'epreuve, 28 °C to 37 °C, 96 h, read-out: MHK-Werte Trichophyton mentagr.
Experimental: as §1, §2

Candida albicans = assay: as above; format: cell-based; conditions: inoculum 5 x 10³ to 10⁴ Keime/ml, Fleischextrakt-Traubenzucker-Bouillon, 28 °C to 37 °C, 24 to 96 h, read-out: MHK-Werte Candida albicans
Experimental: as §1, §2

Aspergillus fumigatus = assay: as above; format: cell-based; conditions: inoculum 5 x 10³ to 10⁴ Keime/ml, Sabouraud's milieu d'epreuve, 28 °C to 37 °C, 96 h, read-out: MHK-Werte Aspergillus fumigatus
Experimental: as §1, §2

Torulopsis glabrata = assay: as above; format: cell-based; conditions: Nakaseomyces glabratus, inoculum 5 x 10³ to 10⁴ Keime/ml, Fleischextrakt-Traubenzucker-Bouillon, 28 °C to 37 °C, 24 to 96 h, read-out: MHK-Werte Torulopsis glabrata
Experimental: as §1, §2

Microsporum canis = assay: as above; format: cell-based; conditions: inoculum 5 x 10³ to 10⁴ Keime/ml, Sabouraud's milieu d'epreuve, 28 °C to 37 °C, 96 h, read-out: MHK-Werte Microsporum canis
Experimental: as §1, §2

Candida = assay: Antimycotic in-vivo activity (oral) in mouse candidosis; design: species or system Mäuse vom Typ SPF-CF₁
Experimental: Mäuse vom Typ SPF-CF₁ werden intravenös mit 1 - 2 x 10⁶ logarithmisch wachsenden Candida-Zellen, die in physiologischer Kochsalzlösung suspendiert werden, infiziert. Eine Stunde vor und sieben Stunden nach der Infektion werden die Tiere mit jeweils 25 - 100 mg/kg Körpergewicht der Präparate oral behandelt.
Unbehandelte Tiere sterben 3 bis 6 Tage post infektionem. Die Überlebensrate am 6.Tag post infektionem beträgt bei unbehandelten Kontrolltieren etwa 5 %.

[2] = mouse candidosis, oral, compared in words with known compounds (A) and (B)

For `Cc1nc(C(O)(Cn2cncn2)c2ccc(F)cc2)cs1` (stereo not drawn) [Verbindung 1, 1-(4-Fluorphenyl)-1-(2-methylthiazol-4-yl)-2-(1,2,4-triazol-1-yl)-ethanol], the “antimykotische Wirksamkeit” value [1] was “bessere antimykotische Wirksamkeit”, the MIC (Trichophyton mentagr.) was 4 µg/mL (≈ 13.1 µM) and the MIC (Candida albicans) was 15 µg/mL (≈ 49.3 µM). For the same compound, the MIC (Aspergillus fumigatus) was 32 µg/mL (≈ 105 µM) and the MIC (Torulopsis glabrata) was greater than 64 µg/mL.

`OC(Cn1cncn1)(Cn1cncn1)c1ccccc1` [(A), 2-Phenyl-1,3-bis-(1,2,4-triazol-1-yl)-propan-2-ol, reference compound] showed an MIC (Trichophyton mentagr.) of 64 µg/mL (≈ 237 µM), an MIC (Candida albicans) of 64 µg/mL (≈ 237 µM) and an MIC (Aspergillus fumigatus) greater than 64 µg/mL. It also gave an MIC (Torulopsis glabrata) greater than 64 µg/mL.

In the case of `OC(Cn1cncn1)(c1ccc(Cl)cc1)c1csc(COc2ccc(Cl)cc2Cl)n1` (stereo not drawn) [Verbindung 26], the “antimykotische Wirksamkeit” value [1] is reported as “bessere antimykotische Wirksamkeit”.

For `CCN(CC)c1nc(C(O)(Cn2cncn2)c2ccc(Cl)cc2)cs1` (stereo not drawn) [Verbindung 49], the “antimykotische Wirksamkeit” value [1] was “bessere antimykotische Wirksamkeit”.

`Cc1ccc(-c2nc(C(O)(Cn3cncn3)c3ccc(Cl)cc3)cs2)cc1` (stereo not drawn) [Verbindung 15] was tested, and the “antimykotische Wirksamkeit” value [1] was “bessere antimykotische Wirksamkeit”, the MIC (Trichophyton mentagr.) was less than 1 µg/mL and the MIC (Microsporum canis) was 8 µg/mL (≈ 20.2 µM). The MIC (Candida albicans) was 4 µg/mL (≈ 10.1 µM), the MIC (Aspergillus fumigatus) was 4 µg/mL (≈ 10.1 µM) and the MIC (Torulopsis glabrata) was 4 µg/mL (≈ 10.1 µM).

In the case of `Cc1cccc(-c2nc(C(O)(Cn3cncn3)c3ccc(Cl)cc3)cs2)c1` (stereo not drawn) [Verbindung 36], the “antimykotische Wirksamkeit” value [1] is reported as “bessere antimykotische Wirksamkeit”.

With `OC(Cn1ccnc1)(c1ccc(Cl)cc1)c1csc(N2CCCCC2)n1` (stereo not drawn) [Verbindung 18] the “antimykotische Wirksamkeit” value [1] was “bessere antimykotische Wirksamkeit”, the MIC (Trichophyton mentagr.) was less than 1 µg/mL and the MIC (Microsporum canis) was 64 µg/mL (≈ 165 µM). It also gave an MIC (Candida albicans) of 8 µg/mL (≈ 20.6 µM), an MIC (Aspergillus fumigatus) of 32 µg/mL (≈ 82.3 µM) and an MIC (Torulopsis glabrata) of 16 µg/mL (≈ 41.1 µM).

In the case of `OC(Cn1cncn1)(c1ccc(Cl)cc1)c1csc(-c2ccc(F)cc2)n1` (stereo not drawn) [Verbindung 41], the Wirkung (Candida; [2]) is reported as “bessere Wirkung” and the “antimykotische Wirksamkeit” value [1] is reported as “bessere antimykotische Wirksamkeit”.

For `Cc1ccccc1-c1nc(C(O)(Cn2cncn2)c2ccc(Cl)cc2)cs1` (stereo not drawn) [Verbindung 52], the “antimykotische Wirksamkeit” value [1] was “bessere antimykotische Wirksamkeit”.

For `OC(Cn1cncn1)(c1ccc(Cl)cc1)c1csc(-c2ccc(F)c(Cl)c2)n1` (stereo not drawn) [Verbindung 47], the “antimykotische Wirksamkeit” value [1] was “bessere antimykotische Wirksamkeit”.

For `OC(Cn1cncn1)(c1ccc(F)cc1)c1csc(-c2ccc(Cl)cc2)n1` (stereo not drawn) [Verbindung 40], the Wirkung (Candida; [2]) was “bessere Wirkung” and the “antimykotische Wirksamkeit” value [1] was “bessere antimykotische Wirksamkeit”.

With `OC(Cn1cncn1)(c1ccc(Cl)cc1)c1csc(-c2ccc(Cl)cc2)n1` (stereo not drawn) [Verbindung 21] the Wirkung (Candida; [2]) was “bessere Wirkung” and the “antimykotische Wirksamkeit” value [1] was “bessere antimykotische Wirksamkeit”.

`OC(Cn1ccnc1)(c1ccc(F)cc1)c1csc(-c2ccccc2)n1` (stereo not drawn) [Verbindung 27] was tested, and the “antimykotische Wirksamkeit” value [1] was “bessere antimykotische Wirksamkeit”.

In the case of `OC(Cn1ccnc1)(c1ccc(Cl)cc1)c1csc(-c2ccc(Cl)cc2)n1` (stereo not drawn) [Verbindung 20], the “antimykotische Wirksamkeit” value [1] is reported as “bessere antimykotische Wirksamkeit”.

In the case of `Cc1ccc(C(O)(Cn2ccnc2)c2csc(-c3ccc(Cl)cc3)n2)cc1` (stereo not drawn) [Verbindung 3], the “antimykotische Wirksamkeit” value [1] is reported as “bessere antimykotische Wirksamkeit”, the MIC (Trichophyton mentagr.) is reported as less than 1 µg/mL and the MIC (Microsporum canis) is reported as 16 µg/mL (≈ 40.4 µM). For the same compound, the MIC (Candida albicans) was less than 1 µg/mL, the MIC (Aspergillus fumigatus) was 16 µg/mL (≈ 40.4 µM) and the MIC (Torulopsis glabrata) was 4 µg/mL (≈ 10.1 µM).

With `OC(Cn1ccnc1)(c1ccc(F)cc1)c1csc(-c2ccc(Cl)cc2)n1` (stereo not drawn) [Verbindung 39] the “antimykotische Wirksamkeit” value [1] was “bessere antimykotische Wirksamkeit”.

With `OC(Cn1cncn1)(c1ccc(F)cc1)c1csc(-c2ccc(F)cc2)n1` (stereo not drawn) [Verbindung 44] the “antimykotische Wirksamkeit” value [1] was “bessere antimykotische Wirksamkeit”.

For `OC(Cn1ccnc1)(c1ccc(Cl)cc1)c1csc(COc2ccc(Cl)cc2Cl)n1` (stereo not drawn) [Verbindung 25], the “antimykotische Wirksamkeit” value [1] was “bessere antimykotische Wirksamkeit”.

With `OC(Cn1cncn1)(c1ccc(Cl)cc1)c1csc(-c2ccccc2)n1` (stereo not drawn) [Verbindung 59] the “antimykotische Wirksamkeit” value [1] was “bessere antimykotische Wirksamkeit”.

With `OC(Cn1ccnc1)(c1ccc(Cl)cc1)c1csc(-c2ccc(-n3ccnc3)c(Cl)c2)n1` (stereo not drawn) [Verbindung 22] the Wirkung (Candida; [2]) was “bessere Wirkung” and the “antimykotische Wirksamkeit” value [1] was “bessere antimykotische Wirksamkeit”.

For `OC(Cn1cncn1)(c1ccc(Cl)cc1)c1csc(-c2ccc(-n3cncn3)cc2)n1` (stereo not drawn) [Verbindung 42], the Wirkung (Candida; [2]) was “bessere Wirkung” and the “antimykotische Wirksamkeit” value [1] was “bessere antimykotische Wirksamkeit”.

For `OC(Cn1cncn1)(c1ccc(Cl)cc1)c1csc(Nc2ccccc2)n1` (stereo not drawn) [Verbindung 45], the “antimykotische Wirksamkeit” value [1] was “bessere antimykotische Wirksamkeit”.

With `OC(Cn1cncn1)(c1ccc(F)cc1)c1csc(-c2ccccc2)n1` (stereo not drawn) [Verbindung 28] the “antimykotische Wirksamkeit” value [1] was “bessere antimykotische Wirksamkeit”.

For `CN(c1ccccc1)c1nc(C(O)(Cn2cncn2)c2ccc(Cl)cc2)cs1` (stereo not drawn) [Verbindung 43], the “antimykotische Wirksamkeit” value [1] was “bessere antimykotische Wirksamkeit”.

`Cc1ccc(C(O)(Cn2cncn2)c2csc(C)n2)cc1` (stereo not drawn) [Verbindung 57] was tested, and the Wirkung (Candida; [2]) was “bessere Wirkung”.

For `Cc1ccc(-c2nc(C(O)(Cn3ccnc3)c3ccc(Cl)cc3)cs2)cc1` (stereo not drawn) [Verbindung 14], the “antimykotische Wirksamkeit” value [1] was “bessere antimykotische Wirksamkeit”, the MIC (Trichophyton mentagr.) was less than 1 µg/mL and the MIC (Microsporum canis) was 8 µg/mL (≈ 20.2 µM). It also gave an MIC (Candida albicans) of 2 µg/mL (≈ 5.05 µM), an MIC (Aspergillus fumigatus) of 4 µg/mL (≈ 10.1 µM) and an MIC (Torulopsis glabrata) of 2 µg/mL (≈ 5.05 µM).

For `CC(C)(n1cncn1)C(O)(Cn1ccnc1)c1ccc(F)cc1` (stereo not drawn) [(B), 2-(4-Fluorphenyl)-3-methyl-1-imidazol-1-yl-3-(1,2,4-triazol-1-yl)-butan-2-ol, reference compound], the Wirkung (Candida; mice infected i.v. with 1 - 2 x 10⁶ Candida cells, 25 - 100 mg/kg oral 1 h before and 7 h after infection, survival at day 6 p.i., class symbols, key not readable) was “k.w”, the MIC (Trichophyton mentagr.) was greater than 64 µg/mL and the MIC (Candida albicans) was greater than 64 µg/mL. For the same compound, the MIC (Aspergillus fumigatus) was greater than 64 µg/mL and the MIC (Torulopsis glabrata) was greater than 64 µg/mL.

`OC(Cn1ccnc1)(c1ccc(Cl)cc1)c1csc(-c2ccccc2)n1` (stereo not drawn) [Verbindung 62] was tested, and the “antimykotische Wirksamkeit” value [1] was “bessere antimykotische Wirksamkeit”.

`OC(Cn1cncn1)(c1ccc(Cl)cc1)c1csc(-c2ccc(-n3cncn3)c(Cl)c2)n1` (stereo not drawn) [Verbindung 23] was tested, and the Wirkung (Candida; [2]) was “bessere Wirkung” and the “antimykotische Wirksamkeit” value [1] was “bessere antimykotische Wirksamkeit”.
